In ChEMBL document CHEMBL6134894, “Medoxomil Prodrug Strategies” (J Med Chem, 2025):

Columns and labels:
[1] = Water solubility of the compound at pH 7.4 by HPLC analysis; assay type: physicochemical
[2] = Oral bioavailability in Sprague-Dawley rat; assay type: ADME, organism-based; conditions: in vivo
[3] = Lipophilicity, logP of the compound; assay type: physicochemical; conditions: octanol/water
[4] = Oral bioavailability in Beagle dog; assay type: ADME, organism-based, Canis lupus familiaris; conditions: in vivo
[5] = Half life in Wistar rat at 20 mg/kg, po by LC-MS/MS analysis; assay type: ADME, organism-based; conditions: in vivo
[6] = Oral bioavailability in dog at 0.03 mg/kg; assay type: ADME, organism-based, Canis lupus familiaris; conditions: in vivo
[7] = Inhibition of ADP-induced platelet aggregation in New Zealand White rabbit; assay type: functional, Oryctolagus cuniculus
[8] = system: Human immunodeficiency virus 1; assay: Antiviral activity against HIV-1 infected in human MT4 cells assessed as inhibition of viral growth; assay type: functional, organism-based; conditions: Human immunodeficiency virus 1, MT4
[9] = Permeability across apical to basolateral side in human Caco-2 cells; assay type: ADME, cell-based; conditions: read-out: permeability
[10] = Toxicity in Wistar rat assessed as effective dose; conditions: in vivo, 6 h
[11] = AUC in human at 20 mg/kg, po by LC-MS/MS analysis; assay type: ADME, organism-based; conditions: in vivo
[12] = Cmax in human at 20 mg/kg, po by LC-MS/MS analysis; assay type: ADME, organism-based; conditions: in vivo
[13] = Oral bioavailability in rat; assay type: ADME, organism-based; conditions: in vivo
[14] = Oral bioavailability in Sprague-Dawley rat at 10 mg/kg measured for 24 hrs by LC-MS/MS analysis; assay type: ADME, organism-based; conditions: in vivo

Which solubility [1] does the source give for `Cc1oc(=O)oc1COC(=O)N1CC[C@@H](N2CC/C(=C\C3=C(C(=O)O)N4C(=O)[C@@H](NC(=O)/C(=N\O)c5nsc(N)n5)[C@H]4SC3)C2=O)C1` here?
The solubility was > 200 µg/mL.

For `C=C(c1ccc(C(=O)OCC)cc1)c1cc2c(cc1C)C(C)(C)CCC2(C)C`, which bioavailability [2] is on record?
The bioavailability was 35%.

Which logP ([3]; read-out: logP) does the source give for `Cc1oc(=O)oc1COC(=O)CC[C@H](NC(=O)c1ccc(CCc2c[nH]c3[nH]c(N)nc(=O)c23)cc1)C(=O)O` here?
The logP was 1.72.

Which bioavailability [4] does the source give for `Cc1oc(=O)oc1COC(=O)[C@@](C)(N)Cc1ccc(O)c(O)c1` here?
The bioavailability was 92.1%.

Which half-life [5] does the source give for `CCCc1nc(C(C)(C)O)c(C(=O)O)n1Cc1ccc(-c2ccccc2-c2nnn[nH]2)cc1` [OLMESARTAN] here?
The half-life was 30 min.

Which bioavailability [6] does the source give for `Cc1oc(=O)oc1COC(=O)N1CCC(CC[C@@H]2CCCN(CC(=O)N[C@H](C)CC(=O)O)C2=O)CC1` here?
The bioavailability was 23%.

What about the “inhibition (INH)” value [7] of the same compound?
The value was 100%.

For `Cc1oc(=O)oc1COC(=O)CC[C@H](NC(=O)c1ccc(CCc2c[nH]c3[nH]c(N)nc(=O)c23)cc1)C(=O)OCc1oc(=O)oc1C`, which logP ([3]; read-out: logP) is on record?
The logP was 2.64.

With `Cc1oc(=O)oc1COP(=O)(O)COCCn1cnc2c(N)ncnc21` as the compound, how does the EC50 [8] read?
Its EC50 is 10.6 µM.

Which bioavailability [2] does the source give for `C=C(c1ccc(C(=O)OCc2oc(=O)oc2C)cc1)c1cc2c(cc1C)C(C)(C)CCC2(C)C` here?
The bioavailability was 12%.

Which bioavailability [2] does the source give for `C=C(c1ccc(C(=O)O)cc1)c1cc2c(cc1C)C(C)(C)CCC2(C)C` [BEXAROTENE] here?
The bioavailability was 75%.

With `CCOc1nc2cccc(C(=O)O)c2n1Cc1ccc(-c2ccccc2-c2noc(=O)[nH]2)cc1` [AZILSARTAN] as the compound, how does the Papp A→B [9] read?
The Papp A→B was 0.636 ×10⁻⁶ cm/s.

Which bioavailability [4] does the source give for `C[C@](N)(Cc1ccc(O)c(O)c1)C(=O)O` [METHYLDOPA] here?
The bioavailability was 94.2%.

Which EC50 [8] does the source give for `Nc1ncnc2c1ncn2CCOCP(=O)(O)O` [ADEFOVIR] here?
Its EC50 is 10.4 µM.

Which ED50 [10] does the source give for `CCCCc1nc(Cl)c(C(=O)O)n1Cc1ccc(-c2ccccc2-c2nn[nH]n2)cc1` [CARBOXYLIC ACID METABOLITE] here?
The ED50 was 9.05 µg/kg.

With `Nc1nc2[nH]cc(CCc3ccc(C(=O)N[C@@H](CCC(=O)O)C(=O)O)cc3)c2c(=O)[nH]1` [PEMETREXED] as the compound, how does the logP [3] read?
The logP was 0.75.

For `CC1Sc2c(C(=O)O)c(=O)c3cc(F)c(N4CCNCC4)cc3n21` (stereo unspecified) [ULIFLOXACIN], which AUC [11] is on record?
Its AUC is 22200 ng·h/mL.

What about the Cmax [12] of the same compound?
The Cmax was 630 ng/mL.

With `COC(=O)N[C@H](C(=O)N[C@@H](Cc1ccccc1)[C@@H](O)CN(Cc1ccc(-c2ccccn2)cc1)NC(=O)[C@@H](NC(=O)OC)C(C)(C)C)C(C)(C)C` [ATAZANAVIR] as the compound, how does the F [13] read?
Its F is 1%.

What about the bioavailability [14] of the same compound?
The bioavailability was 20%.

Which Papp A→B [9] does the source give for `CCOc1nc2cccc(C(=O)OCc3oc(=O)oc3C)c2n1Cc1ccc(-c2ccccc2-c2noc(=O)[nH]2)cc1` [AZILSARTAN MEDOXOMIL] here?
The Papp A→B was 2.8 ×10⁻⁶ cm/s.
